Assay [1] addresses Influenza A endonuclease (pandemic H1N1 endonuclease, residues 1–204) (Influenza A virus, UniProt C3W5S0). In kind it is biochemical.
The subject of another assay is influenza A endonuclease. Conditions: earlier studies with phenyl substituted 3-hydroxypyridin-2(1H)-ones; cited from earlier work.

Turning to `N#Cc1cccc(-c2ncc(O)c(=O)[nH]2)c1` [compound 10, 3-(5-Hydroxy-6-oxo-1,6-dihydropyrimidin-2-yl)benzonitrile], the “potency compared to the 4-cyanophenyl isomer 9” value in assay [1] is “approximately twice as potent”.
On to `O=c1[nH]cnc(-c2ccc(F)cc2)c1O` [compound 2, 6-(4-Fluorophenyl)-5-hydroxypyrimidin-4(3H)-one], for which, in assay [1], the “activity as an endonuclease inhibitor (in words)” value is “lack of activity”.
The same measure, in the same setting: the result for `O=c1[nH]ncc(-c2ccc(F)cc2)c1O` [compound 13, 5-(4-Fluorophenyl)-4-hydroxypyridazin-3(2H)-one] reads “did not exhibit significant activity”.
As to `O=c1[nH]cc(-c2ccc(F)cc2)[nH]c1=O` [compound 1, 5-(4-Fluorophenyl)pyrazine-2,3(1H,4H)-dione], in assay [1], the “activity as an endonuclease inhibitor (in words)” value is “comparatively weak activity” and the “less potent than either 5- or 6-(4-fluorophenyl)-3-hydroxypyridin-2(1H)-one” value is “more than 80 times”.
As for `O=c1[nH]ccc(-c2ccc(F)cc2)c1O` [4-(4-fluorophenyl)-3-hydroxypyridin-2(1H)one], the “activity as endonuclease inhibitor (in words)” value in the assay with influenza A endonuclease is “did not exhibit significant activity”.
On to `O=c1[nH]c(-c2ccc(-c3nnn[nH]3)cc2)ncc1O` [compound 11, 2-(4-(1H-Tetrazol-5-yl)phenyl)-5-hydroxypyrimidin-4(3H)-one], for which the “potency relative to the 3-(tetrazoly)phenyl derivative 12” value in assay [1] came out at 3 fold.

The values above are taken from PMC4191602 (Journal of Medicinal Chemistry, 2014).
